Results: patent US12655130B2 (ASSEMBLY BIOSCIENCES, INC., priority 2020, dated 2026)
Like-named read-outs stand apart in the source and are kept apart here.

Tested on: HBV viral load (viral production from HepAD38 cells)
Test: Activity of test compounds on viral production from HepAD38 cells (viral load by qPCR of HBV core sequence)
Format: cell-based
Conditions: viral load lowering, 5 days, qPCR of supernatant, read-out: VL HepAD38 EC50 range
Procedure, shortened: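 EC50 and CC50 come from four-parameter logistic fits: HBV core DNA in supernatant by TaqMan qPCR against DNA standards, normalised to DMSO controls, and cell viability by CellTiter-Glo. Cells were plated at 50,000/well without tetracycline (2% FBS) and exposed to compounds (highest 10 μM) for 5 days, 37 °C.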

[1] = Hepatitis B virus, HePAD38, 120 h

In the case of Cn1cnc(C2CC3CC(O)(c4c(F)c(N)nn4C)CC3C2)c1C(=O)Nc1ccc(F)c(Cl)c1 (centres unmarked) [Example 52, 4-(5-(3-Amino-4-fluoro-1-methyl-1H-pyrazol-5-yl)-5-hydroxyoctahydropentalen-2-yl)-N-(3-chloro-4-fluorophenyl)-1-methyl-1H-imidazole-5-carboxamide], the EC50 [1] is reported as < 10 nM.

Cn1cnc(C2CC3CC(O)(c4cc(O)nn4C)CC3C2)c1C(=O)Nc1ccc(F)c(Cl)c1 (centres unmarked) [Example 53, N-(3-Chloro-4-fluorophenyl)-4-(5-hydroxy-5-(3-hydroxy-1-methyl-1H-pyrazol-5-yl)octahydropentalen-2-yl)-1-methyl-1H-imidazole-5-carboxamide] was tested, and the EC50 [1] was < 10 nM.

CC(C)Oc1cc(C2(O)CC3CC(c4ncn(C)c4C(=O)Nc4ccc(F)c(Cl)c4)CC3C2)n(C)n1 (centres unmarked) [Example 54, N-(3-Chloro-4-fluorophenyl)-4-(5-hydroxy-5-(3-isopropoxy-1-methyl-1H-pyrazol-5-yl)octahydropentalen-2-yl)-1-methyl-1H-imidazole-5-carboxamide] was tested, and the EC50 [1] was < 10 nM.

With Cn1cnc(C2CC3CC(O)(c4cc(OCC(C)(C)O)nn4C)CC3C2)c1C(=O)Nc1ccc(F)c(Cl)c1 (centres unmarked) [Example 55, N-(3-Chloro-4-fluorophenyl)-4-(5-hydroxy-5-(3-(2-hydroxy-2-methylpropoxy)-1-methyl-1H-pyrazol-5-yl)octahydropentalen-2-yl)-1-methyl-1H-imidazole-5-carboxamide] the EC50 [1] was < 10 nM.

In the case of CC#Cc1cc(C2(O)CC3CC(c4ncn(C)c4C(=O)Nc4ccc(F)c(Cl)c4)CC3C2)n(C)n1 (centres unmarked) [Example 56, N-(3-Chloro-4-fluorophenyl)-4-(5-hydroxy-5-(1-methyl-3-(prop-1-yn-1-yl)-1H-pyrazol-5-yl)octahydropentalen-2-yl)-1-methyl-1H-imidazole-5-carboxamide], the EC50 [1] is reported as < 10 nM.

For Cn1cnc(C2CC3CC(O)(c4cc(C#N)nn4C)CC3C2)c1C(=O)Nc1ccc(F)c(Cl)c1 (centres unmarked) [Example 57, N-(3-Chloro-4-fluorophenyl)-4-(5-(3-cyano-1-methyl-1H-pyrazol-5-yl)-5-hydroxyoctahydropentalen-2-yl)-1-methyl-1H-imidazole-5-carboxamide], the EC50 [1] was < 10 nM.

CC(=O)c1cc(C2(O)CC3CC(c4ncn(C)c4C(=O)Nc4ccc(F)c(Cl)c4)CC3C2)n(C)n1 (centres unmarked) [Example 58, 4-(5-(3-Acetyl-1-methyl-1H-pyrazol-5-yl)-5-hydroxyoctahydropentalen-2-yl)-N-(3-chloro-4-fluorophenyl)-1-methyl-1H-imidazole-5-carboxamide] was tested, and the EC50 [1] was < 10 nM.

In the case of Cn1cnc(C2CC3CC(O)(c4cc(C(C)(C)O)nn4C)CC3C2)c1C(=O)Nc1ccc(F)c(Cl)c1 (centres unmarked) [Example 59, N-(3-Chloro-4-fluorophenyl)-4-(5-hydroxy-5-(3-(2-hydroxypropan-2-yl)-1-methyl-1H-pyrazol-5-yl)octahydropentalen-2-yl)-1-methyl-1H-imidazole-5-carboxamide], the EC50 [1] is reported as < 10 nM.

CC(O)c1cc(C2(O)CC3CC(c4ncn(C)c4C(=O)Nc4ccc(F)c(Cl)c4)CC3C2)n(C)n1 (centres unmarked) [Example 60, N-(3-Chloro-4-fluorophenyl)-4-(5-hydroxy-5-(3-(1-hydroxyethyl)-1-methyl-1H-pyrazol-5-yl)octahydropentalen-2-yl)-1-methyl-1H-imidazole-5-carboxamide] was tested, and the EC50 was < 10 nM.

Cn1cnc(C2CC3CC(O)(c4c(F)c(O)nn4C)CC3C2)c1C(=O)Nc1ccc(F)c(Cl)c1 (centres unmarked) [Example 61, N-(3-Chloro-4-fluorophenyl)-4-(5-(4-fluoro-3-hydroxy-1-methyl-1H-pyrazol-5-yl)-5-hydroxyoctahydropentalen-2-yl)-1-methyl-1H-imidazole-5-carboxamide] was tested, and the EC50 [1] was < 10 nM.

With Cn1cnc(C2CC3CC(O)(c4c(F)c(OCC(O)C(F)(F)F)nn4C)CC3C2)c1C(=O)Nc1ccc(F)c(Cl)c1 (centres unmarked) [Example 62, N-(3-Chloro-4-fluorophenyl)-4-(5-(4-fluoro-1-methyl-3-(3,3,3-trifluoro-2-hydroxypropoxy)-1H-pyrazol-5-yl)-5-hydroxyoctahydropentalen-2-yl)-1-methyl-1H-imidazole-5-carboxamide] the EC50 [1] was < 10 nM.

For Cn1cnc(C2CC3CC(O)(c4c(F)c(NCC(C)(C)O)nn4C)CC3C2)c1C(=O)Nc1ccc(F)c(Cl)c1 (centres unmarked) [Example 63, N-(3-Chloro-4-fluorophenyl)-4-(5-(4-fluoro-3-((2-hydroxy-2-methylpropyl)amino)-1-methyl-1H-pyrazol-5-yl)-5-hydroxyoctahydropentalen-2-yl)-1-methyl-1H-imidazole-5-carboxamide], the EC50 [1] was < 10 nM.

Cn1cnc(C2CC3CC(O)(c4c(F)c(C#N)nn4C)CC3C2)c1C(=O)Nc1ccc(F)c(Cl)c1 (centres unmarked) [Example 64, N-(3-Chloro-4-fluorophenyl)-4-(5-(3-cyano-4-fluoro-1-methyl-1H-pyrazol-5-yl)-5-hydroxyoctahydropentalen-2-yl)-1-methyl-1H-Imidazole-5-carboxamide] was tested, and the EC50 [1] was < 10 nM.

In the case of CC(=O)c1nn(C)c(C2(O)CC3CC(c4ncn(C)c4C(=O)Nc4ccc(F)c(Cl)c4)CC3C2)c1F (centres unmarked) [Example 65, 4-(5-(3-Acetyl-4-fluoro-1-methyl-1H-pyrazol-5-yl)-5-hydroxyoctahydropentalen-2-yl)-N-(3-chloro-4-fluorophenyl)-1-methyl-1H-imidazole-5-carboxamide], the EC50 [1] is reported as < 10 nM.

Cn1cnc(C2CC3CC(O)(c4c(F)c(C(C)(C)O)nn4C)CC3C2)c1C(=O)Nc1ccc(F)c(Cl)c1 (centres unmarked) [Example 66, N-(3-Chloro-4-fluorophenyl)-4-(5-(4-fluoro-3-(2-hydroxypropan-2-yl)-1-methyl-1H-pyrazol-5-yl)-5-hydroxyoctahydropentalen-2-yl)-1-methyl-1H-imidazole-5-carboxamide] was tested, and the EC50 [1] was < 10 nM.

In the case of CC(CO)Oc1cc(C2(O)CC3CC(c4ncn(C)c4C(=O)Nc4ccc(F)c(Cl)c4)CC3C2)n(C)n1 (centres unmarked) [Example 67, N-(3-Chloro-4-fluorophenyl)-4-(5-hydroxy-5-(3-((1-hydroxypropan-2-yl)oxy)-1-methyl-1H-pyrazol-5-yl)octahydropentalen-2-yl)-1-methyl-1H-imidazole-5-carboxamide], the EC50 is reported as < 10 nM.

In the case of Cc1c(N)nn(C)c1C1(O)CC2CC(c3ncn(C)c3C(=O)Nc3ccc(F)c(Cl)c3)CC2C1 (centres unmarked) [Example 75, 4-(5-(3-Amino-1,4-dimethyl-1H-pyrazol-5-yl)-5-hydroxyoctahydropentalen-2-yl)-N-(3-chloro-4-fluorophenyl)-1-methyl-1H-imidazole-5-carboxamide], the EC50 [1] is reported as < 10 nM.

For CCn1nc(N)cc1C1(O)CC2CC(c3ncn(C)c3C(=O)Nc3ccc(F)c(Cl)c3)CC2C1 (centres unmarked) [Example 76], the EC50 [1] was < 10 nM.

In the case of CC(C)n1nc(N)cc1C1(O)CC2CC(c3ncn(C)c3C(=O)Nc3ccc(F)c(Cl)c3)CC2C1 (centres unmarked) [Example 77, 4-(5-(3-Amino-1-Isopropyl-1H-pyrazol-5-yl)-5-hydroxyoctahydropentalen-2-yl)-N-(3-chloro-4-fluorophenyl)-1-methyl-1H-imidazole-5-carboxamide], the EC50 [1] is reported as < 10 nM.

With C[C@H](O)c1cc(C2(O)CC3CC(c4ncn(C)c4C(=O)Nc4ccc(F)c(Cl)c4)CC3C2)n(C)n1 (stereo partly drawn) [Example 78, N-(3-Chloro-4-fluorophenyl)-4-(−5-hydroxy-5-(3-((S)-1-hydroxyethyl)-1-methyl-1H-pyrazol-5-yl)octahydropentalen-2-yl)-1-methyl-1H-imidazole-5-carboxamide] the EC50 [1] was < 10 nM.
